Patent US20110166206A1, “UBIQUILIN REGULATION OF PRESENILIN ENDOPROTEOLYSIS, AND SUPPRESSION OF POLYGLUTAMINE-INDUCED TOXICITY IN CELLS” (UNIVERSITY OF MARYLAND BIOTECHNOLOGY INSTITUTE, priority 2005, published 2011)

What was measured:
[1] = system: GFP-HttQ74-3 and GFP-HttQ28-2 HeLa cell lines; experiment: Ubiquilin-1 transfection of stable GFP-HttPolyQ HeLa cell lines, serum withdrawal-induced cell death and aggregates; assay type: cell-based
From the text: FIG. 11. […] The 28Q-2 and 74Q-3 were used in most of our studies. The asterisk corresponds to a non-specific band that is detected by the GFP antibody. • B. Representative fluorescent images of GFP-HttPolyQ(28)-2 and GFP-HttPolyQ(74)-3 stable cell lines. Note that GFP fluorescence is located in both the cytoplasm and the nucleus, but that compact foci are only seen in the GFP-HttPolyQ(74)-3 cells. • C. Cells expressing expanded polyglutamine proteins are more sensitive to H2O2. The GFP-HftPolyQ(28)-2 and GFP-HttPolyQ(74)-3 stable cell lines were exposed to 200 μM concentration of H2O2 and after 5 hr, the cells were stained with both Hoechest 33342 and PI. The cells stained by PI represent the dead cells whereas all the nuclei are identified by Hoechst 33342 staining. • D. Graph showing percentage of cell death after the cells were exposed to different concentrations of H2O2 for 5 hr. Percentages of cell death calculated by determining the ratio of PI-positively stained cells to that of Hoechst-stained cells. There was a significant difference in cell death upon exposure of GFP-HttPolyQ(28)-2 and GFP-HttPolyQ(74)-3 to 100 μM, 150 μM, or 200 μM of H2O2 (p<0.001). • E. Representative images showing that overexpression of ubiquilin-1 protects GFP-HttPolyQ(74)-3 expressing cells against serum withdrawal-induced cell death. Cells stably expressing GFP-HttPolyQ(28) or GFP-HttPolyQ(74) were transiently transfected with or without (mock transfection) plasmids encoding ubiquilin-1 by the calcium phosphate coprecipitation method. […] Cell death was quantified as described in D above. • H. Representative images showing that ubiquilin-1 overexpression protects GFP-HttPolyQ(74)-3 expressing cells against serum withdrawal-induced cell death, in a dose-dependent manner. […] After 5 hours of serum withdrawal and 30 hours following the transfection, the amount of cell death was analyzed by staining cells with both PI and Hoechst 33342. • I. Graph showing quantification of cell death in the experiments described in H. • J. Immunoblot showing overexpression of increasing amounts of ubiquilin-1 cDNA in the GFP-HttPolyQ(74)-3 cell line reduces GFP-aggregates trapped in the stacking gel after SDS-PAGE. […] Bottom panel: Quantification of the spot intensity determined in three independent experiments.
HeLa cells were grown in DME supplemented with 10% FBS. […] Stable cell lines were identified by GFP-fluorescence.
Cell death was monitored either through examination of the nuclear morphology observed after Hoechst 33342 (1 μg/ml) staining, or through detecting the membrane selective permeability following 3 μM of propidium iodide (PI) staining. […]

[2] = system: HeLa cells; experiment: Co-transfection of ubiquilin-1 cDNA with GFP-Htt Exon 1 Q74 construct in HeLa cells; assay type: cell-based
Experimental: FIG. 9. […] Immunoblots showing GFP-immunoreactivity after biochemical fractionation of parallel sets of HeLa cells transfected with the constructs described in (A) into Triton-X100 soluble and pellet fractions. • D. Densitometric quantification of anti-GFP immunoreactive bands depicting the relative amount of GFP-irnmunoreaction found in the pellet compared to that the total (soluble and pellet fractions combined).
HeLa cells were grown in DME supplemented with 10% FBS. Cells were transiently transfected with plasmid DNA using by calcium phosphate coprecipitation. Stable HeLa cell lines were isolated by cotransfection of EGFP expression constructs with a pNeo plasmid and selection with G418. Stable cell lines were identified by GFP-fluorescence.
Cell death was monitored either through examination of the nuclear morphology observed after Hoechst 33342 (1 μg/ml) staining, or through detecting the membrane selective permeability following 3 μM of propidium iodide (PI) staining. Terminal deoxynucleotidyl Transferase Biotin-dUTP Nick End Labeling (TUNEL) staining was performed with DeadEnd Colorimetric TUNEL staining kits purchased from Promega. For detecting caspase-3 activation, two methods were used. Cell lysates were separated by SDS-PAGE and probed with an antibody against the cleaved substrate for caspase-3. Alternatively, caspase activity was also detected by flurogenic techniques by incubating the cell lysates with a flurogenic caspase-3 substrate, AC-DEVD-AMC in a 96-well plate. After incubation, the cleaved free AMC was scanned by a fluorescence multi-well plate reader (SOSTmax, Sunnyvale, CA) with an excitation at 380 nm (excitation) and emission at 460 nm (emission).
Having established that expression of GFP-tagged Htt-Exon1-polyglutamine fusion proteins in HeLa cells caused a polyglutamine-number dependent increase in intracellular inclusion formation, Triton-X100 insolubility, and cell death, it was necessary to examined what effect overexpression of ubiquilin-1 has on these properties. […]

Substance: UBQLN1: PS-interacting protein ubiquilin-1, overexpressed in cells from a cDNA expression plasmid
- spot intensity of GFP-aggregates, filter retardation assay ([1]; GFP-HttPolyQ(74)-3 cells, 2, 3 and 6 μg vs mock or 1 μg): significantly lower
- cell death, ubiquilin-1-transfected vs mock-transfected ([1]; GFP-HttQ28-2 cell line): no significant difference in cell death
- protection against cell death with increasing amounts of plasmid ([1]; GFP-HttQ74-3 cell line): dose-dependent protection against cell death
- reduction in cell death ([1]; GFP-HttQ74-3 cell line, 24 hours after transfection and serum deprivation, vs untransfected): approximately 50%
- GFP-HttPolyQ74 fusion protein accumulation ([2]; anti-GFP immunoblot): dose-dependent increase in accumulation
- Triton-X100 solubility of GFP-HttPolyQ74 fusion protein ([2]; biochemical fractionation): a greater proportion of the GFP-HttPolyQ74-fusion protein remained soluble
- cell death ([2]; increasing amounts of ubiquilin-1 cDNA vs GFP-Htt Exon-1PolyQ74 alone): dose-dependent decrease in cell death
